Laboratory results: ChEMBL document CHEMBL4145686, “Discovery of a Potent and Selective Steroidal Glucocorticoid Receptor Antagonist (ORIC-101)” (J Med Chem, 2018)
pIC50: −log10 of the molar value.

Tests used:
[1] = biological target: T1, Androgen receptor (Homo sapiens, UniProt P10275); assay: Agonist activity at AR in human LNAR cells assessed as increase in TMPRSS2 gene expression at 0.1 nM incubated for 24 hrs by RT-qPCR method; type: cell-based; conditions: 0.0001 µM
T1 sequence (P10275 whole entry): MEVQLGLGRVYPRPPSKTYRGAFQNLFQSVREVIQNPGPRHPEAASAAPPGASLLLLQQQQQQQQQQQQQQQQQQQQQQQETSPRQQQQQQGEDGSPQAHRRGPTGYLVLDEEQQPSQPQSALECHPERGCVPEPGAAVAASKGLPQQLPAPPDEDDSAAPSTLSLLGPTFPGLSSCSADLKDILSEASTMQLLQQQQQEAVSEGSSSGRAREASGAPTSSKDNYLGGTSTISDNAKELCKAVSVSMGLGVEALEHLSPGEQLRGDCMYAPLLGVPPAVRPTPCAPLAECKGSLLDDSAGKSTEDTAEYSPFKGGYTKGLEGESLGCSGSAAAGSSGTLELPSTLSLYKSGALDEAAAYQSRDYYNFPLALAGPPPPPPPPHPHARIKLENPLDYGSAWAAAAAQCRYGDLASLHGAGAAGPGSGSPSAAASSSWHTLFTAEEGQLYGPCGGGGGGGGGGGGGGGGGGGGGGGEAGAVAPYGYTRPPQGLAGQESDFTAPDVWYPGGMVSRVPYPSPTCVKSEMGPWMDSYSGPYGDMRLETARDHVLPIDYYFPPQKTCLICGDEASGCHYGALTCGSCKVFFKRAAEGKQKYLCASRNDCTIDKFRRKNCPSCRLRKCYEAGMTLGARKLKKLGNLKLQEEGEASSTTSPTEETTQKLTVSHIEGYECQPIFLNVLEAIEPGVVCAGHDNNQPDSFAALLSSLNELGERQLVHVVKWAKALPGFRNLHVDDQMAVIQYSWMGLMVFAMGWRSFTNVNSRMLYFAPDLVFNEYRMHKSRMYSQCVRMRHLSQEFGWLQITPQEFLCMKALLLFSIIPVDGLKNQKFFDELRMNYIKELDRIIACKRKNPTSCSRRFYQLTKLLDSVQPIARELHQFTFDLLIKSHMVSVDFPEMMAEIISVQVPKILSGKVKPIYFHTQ

[2] = biological target: T1, Androgen receptor; assay: Agonist activity at AR in human LNAR cells assessed as increase in PSA gene expression at 0.1 nM incubated for 24 hrs in presence of 1 uM enzalutamide by RT-qPCR method; type: cell-based; conditions: 0.0001 µM
[3] = biological target: T1, Androgen receptor; assay: Agonist activity at AR in human LNAR cells assessed as increase in PSA gene expression at 0.1 nM incubated for 24 hrs by RT-qPCR method; type: cell-based; conditions: 0.0001 µM
[4] = biological target: T1, Androgen receptor; assay: Agonist activity at AR in human LNAR cells assessed as increase in TMPRSS2 gene expression at 0.1 nM incubated for 24 hrs in presence of 1 uM enzalutamide by RT-qPCR method; type: cell-based; conditions: 0.0001 µM
[5] = biological target: T2, Glucocorticoid receptor (Sus scrofa, UniProt Q9N1U3); assay: Antagonist activity at GR in mini pig PBMC assessed as reduction in dexamethasone-induced GILZ gene expression incubated for 24 hrs by RT-qPCR method; type: cell-based
T2 sequence (Q9N1U3 whole entry): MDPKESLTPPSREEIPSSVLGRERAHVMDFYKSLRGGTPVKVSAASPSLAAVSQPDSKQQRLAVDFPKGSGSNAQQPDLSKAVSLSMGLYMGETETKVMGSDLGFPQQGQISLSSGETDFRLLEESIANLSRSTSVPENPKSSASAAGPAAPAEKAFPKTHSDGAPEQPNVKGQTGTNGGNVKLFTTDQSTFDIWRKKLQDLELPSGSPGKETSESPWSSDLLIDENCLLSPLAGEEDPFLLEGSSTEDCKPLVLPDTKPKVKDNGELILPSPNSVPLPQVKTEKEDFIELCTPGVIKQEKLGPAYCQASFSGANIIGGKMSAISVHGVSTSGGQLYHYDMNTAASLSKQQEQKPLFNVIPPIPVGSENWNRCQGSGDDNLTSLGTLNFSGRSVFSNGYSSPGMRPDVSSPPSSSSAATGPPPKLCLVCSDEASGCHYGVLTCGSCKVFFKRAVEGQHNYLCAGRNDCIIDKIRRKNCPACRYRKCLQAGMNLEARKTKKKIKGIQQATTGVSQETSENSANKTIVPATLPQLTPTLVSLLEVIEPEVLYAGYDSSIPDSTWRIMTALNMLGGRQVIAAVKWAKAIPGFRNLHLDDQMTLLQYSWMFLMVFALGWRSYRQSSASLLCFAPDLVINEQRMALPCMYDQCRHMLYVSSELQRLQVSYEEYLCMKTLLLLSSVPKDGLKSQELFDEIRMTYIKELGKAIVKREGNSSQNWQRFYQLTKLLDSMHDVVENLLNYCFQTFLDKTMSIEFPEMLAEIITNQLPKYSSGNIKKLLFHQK

[6] = biological target: T2, Glucocorticoid receptor; assay: Antagonist activity at GR in mini pig PBMC assessed as reduction in dexamethasone-induced FKBP5 gene expression incubated for 24 hrs by RT-qPCR method; type: cell-based
[7] = Antagonist activity at GR in monkey PBMC assessed as reduction in dexamethasone-induced GILZ gene expression incubated for 6 hrs by RT-qPCR method; type: cell-based; conditions: Macaca mulatta
[8] = Cmax in rat at 5 mg/kg, po; type: ADME, organism-based; set-up: dose 5 mg/kg, route oral; conditions: in vivo
[9] = Half life in rat at 0.5 mg/kg, iv; type: ADME, organism-based; conditions: in vivo
[10] = Antagonist activity at GR in monkey PBMC assessed as reduction in dexamethasone-induced FKBP5 gene expression incubated for 6 hrs by RT-qPCR method; type: cell-based; conditions: Macaca mulatta
[11] = AUC in rat at 5 mg/kg, po; type: ADME, organism-based; conditions: in vivo
[12] = Oral bioavailability in rat at 5 mg/kg; type: ADME, organism-based; conditions: in vivo
[13] = biological target: T3, Cytochrome P450 2C8 (Homo sapiens, UniProt P10632); assay: Inhibition of CYP2C8 (unknown origin) using […] as substrate; type: ADME
T3 sequence (P10632 whole entry): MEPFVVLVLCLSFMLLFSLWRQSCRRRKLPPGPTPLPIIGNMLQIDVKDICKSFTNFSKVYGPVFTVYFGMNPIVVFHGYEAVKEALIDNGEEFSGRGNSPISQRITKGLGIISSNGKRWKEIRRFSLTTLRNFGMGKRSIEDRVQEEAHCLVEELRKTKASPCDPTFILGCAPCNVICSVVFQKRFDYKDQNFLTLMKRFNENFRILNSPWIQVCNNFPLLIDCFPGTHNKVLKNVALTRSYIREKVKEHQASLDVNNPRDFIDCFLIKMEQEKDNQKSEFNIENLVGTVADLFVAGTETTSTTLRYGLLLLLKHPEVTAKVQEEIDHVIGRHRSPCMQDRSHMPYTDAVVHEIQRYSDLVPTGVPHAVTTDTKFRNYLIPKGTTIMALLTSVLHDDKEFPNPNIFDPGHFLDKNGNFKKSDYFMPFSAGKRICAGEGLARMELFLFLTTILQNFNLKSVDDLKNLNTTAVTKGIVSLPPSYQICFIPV

[14] = Clearance in rat at 0.5 mg/kg, iv; type: ADME, organism-based; conditions: in vivo
[15] = biological target: T4, Glucocorticoid receptor (Canis lupus familiaris, UniProt A0A8C0QLS2); assay: Antagonist activity at GR in dog PBMC assessed as reduction in dexamethasone-induced FKBP5 gene expression incubated for 6 hrs by RT-qPCR method; type: cell-based
T4 sequence (A0A8C0QLS2 whole entry): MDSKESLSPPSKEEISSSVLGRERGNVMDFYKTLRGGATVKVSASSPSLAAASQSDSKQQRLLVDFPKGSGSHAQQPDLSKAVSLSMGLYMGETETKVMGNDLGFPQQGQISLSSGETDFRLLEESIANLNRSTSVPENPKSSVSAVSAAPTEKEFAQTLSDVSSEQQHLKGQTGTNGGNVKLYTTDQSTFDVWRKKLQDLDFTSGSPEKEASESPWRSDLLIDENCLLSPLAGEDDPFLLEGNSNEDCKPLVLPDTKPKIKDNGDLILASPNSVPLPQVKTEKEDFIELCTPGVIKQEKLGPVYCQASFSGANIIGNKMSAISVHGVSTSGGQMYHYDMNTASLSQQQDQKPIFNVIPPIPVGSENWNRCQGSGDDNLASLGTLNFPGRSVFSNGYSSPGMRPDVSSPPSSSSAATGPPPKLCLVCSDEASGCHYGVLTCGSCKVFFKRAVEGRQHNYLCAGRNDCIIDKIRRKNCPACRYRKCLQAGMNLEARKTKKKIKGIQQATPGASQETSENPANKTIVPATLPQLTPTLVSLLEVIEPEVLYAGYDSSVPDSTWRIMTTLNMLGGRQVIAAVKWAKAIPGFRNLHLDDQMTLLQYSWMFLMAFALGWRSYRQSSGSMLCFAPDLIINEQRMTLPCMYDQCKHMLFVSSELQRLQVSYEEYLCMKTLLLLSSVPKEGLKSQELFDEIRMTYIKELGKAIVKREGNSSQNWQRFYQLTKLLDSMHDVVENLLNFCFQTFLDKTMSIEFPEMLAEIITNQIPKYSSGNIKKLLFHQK

[16] = biological target: T5, glucocorticoid receptor (GR) (Homo sapiens, UniProt P04150); assay: Agonist activity at human GR expressed in CHO-K1 cells incubated for 20 hrs by luciferase reporter gene assay relative to dexamethasone; type: cell-based; conditions: CHO-K1 cells expressing human GR
T5 sequence (P04150 whole entry): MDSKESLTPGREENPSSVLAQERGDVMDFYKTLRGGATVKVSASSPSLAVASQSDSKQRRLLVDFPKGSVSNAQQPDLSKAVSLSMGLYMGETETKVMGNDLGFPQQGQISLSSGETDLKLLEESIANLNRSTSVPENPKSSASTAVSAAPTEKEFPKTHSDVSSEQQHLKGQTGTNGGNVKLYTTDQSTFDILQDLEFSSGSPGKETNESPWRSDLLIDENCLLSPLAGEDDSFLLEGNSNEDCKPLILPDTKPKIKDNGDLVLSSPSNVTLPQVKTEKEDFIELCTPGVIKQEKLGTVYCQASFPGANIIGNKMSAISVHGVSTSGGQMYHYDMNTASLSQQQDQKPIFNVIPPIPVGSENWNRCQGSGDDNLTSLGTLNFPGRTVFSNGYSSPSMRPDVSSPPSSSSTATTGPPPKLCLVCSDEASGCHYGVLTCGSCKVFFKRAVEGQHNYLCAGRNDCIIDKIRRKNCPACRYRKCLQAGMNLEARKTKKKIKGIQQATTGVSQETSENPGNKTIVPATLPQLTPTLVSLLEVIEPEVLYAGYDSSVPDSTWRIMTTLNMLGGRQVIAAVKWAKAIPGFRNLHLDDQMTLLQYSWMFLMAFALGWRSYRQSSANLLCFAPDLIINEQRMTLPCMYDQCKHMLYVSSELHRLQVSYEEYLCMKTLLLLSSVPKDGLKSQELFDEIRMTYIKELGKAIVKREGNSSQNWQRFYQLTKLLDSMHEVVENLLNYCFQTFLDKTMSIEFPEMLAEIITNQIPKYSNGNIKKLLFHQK

[17] = Volume of distribution at steady state in rat at 0.5 mg/kg, iv; type: ADME, organism-based; conditions: in vivo, read-out: Vdss
[18] = biological target: T4, Glucocorticoid receptor; assay: Antagonist activity at GR in dog PBMC assessed as reduction in dexamethasone-induced GILZ gene expression incubated for 6 hrs by RT-qPCR method; type: cell-based
[19] = biological target: Cytochrome P450 2C9 (Homo sapiens, UniProt P11712); assay: Inhibition of CYP2C9 (unknown origin) using […] as substrate; type: ADME
Cytochrome P450 2C9, sequence (P11712 whole entry): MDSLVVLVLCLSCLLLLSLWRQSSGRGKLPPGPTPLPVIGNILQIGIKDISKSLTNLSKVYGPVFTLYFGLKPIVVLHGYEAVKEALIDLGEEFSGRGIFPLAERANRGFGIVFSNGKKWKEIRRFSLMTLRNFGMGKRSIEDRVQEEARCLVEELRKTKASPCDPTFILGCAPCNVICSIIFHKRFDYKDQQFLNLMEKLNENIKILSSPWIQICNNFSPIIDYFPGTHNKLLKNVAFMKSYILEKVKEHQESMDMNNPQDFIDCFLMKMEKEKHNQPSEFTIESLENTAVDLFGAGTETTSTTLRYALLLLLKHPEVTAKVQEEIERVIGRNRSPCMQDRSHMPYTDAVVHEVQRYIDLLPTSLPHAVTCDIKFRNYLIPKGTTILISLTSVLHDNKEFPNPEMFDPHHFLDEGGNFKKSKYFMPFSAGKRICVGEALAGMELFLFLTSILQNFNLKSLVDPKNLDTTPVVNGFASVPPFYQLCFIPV

SMILES | Activity [1] | Activity [2] | Activity [3] | Activity [4] | pIC50 [5] | pIC50 [6] | pIC50 [7] | Cmax [8] [ng/mL] | half-life [9] [h] | pIC50 [10] | AUC [11] [ng·h/mL] | bioavailability [12] [%] | pIC50 [13] | clearance [14] [mL/min/kg] | pIC50 [15] | Emax at 20 h [16] [%] | Vd [17] [L/kg] | pIC50 [18] | pIC50 [19]
C[C@]1(O)CC[C@H]2[C@@H]3CCC4=CC(=O)CCC4=C3C=C[C@@]21C [METRIBOLONE] | Active | Not Active | Active | Not Active | – | – | – | – | – | – | – | – | – | – | – | – | – | – | –
CC#C[C@]1(O)CC[C@H]2[C@@H]3CCC4=CC(=O)CCC4=C3[C@@H](c3ccc(N(C)C)cc3)C[C@@]21C [MIFEPRISTONE] | – | – | – | – | 7.59 to 7.96 | 7.71 | 7.86 | 24 | 1.6 | 7.66 | 85 | 6.4 | 5.82 | 61.7 | 7.69 | 3.1 | 4.1 | 7.49 | 5.31
